We go through two compounds from patent publication US20220031825A1, “IMM[…] AND VACCINE COMPOSITION INCLUDING STING AGONIST” (priority 2018, published 2022).

The test system of test [1] is spleen and lung cells. The test is described as follows: Type and number of memory T cells in spleen and lung (flow cytometry). The class given is in vivo, mouse. As to conditions: both spleen and lung cells of immunized mice; compared with MPL as adjuvant; FIG. 1D. The text has this:
In general, when infected with Mycobacterium tuberculosis, Mycobacterium tuberculosis antigen-specific T cells replicate and differentiate to become effector T cells. When the immune response disappears, most of these effector T cells die, and some form long-lasting memory T cells. It is known that the memory T cells thus formed play a critical role in the formation of a rapid acquired defense immunity and maintenance of the memorization of T cells. […] For the experiment, the spleen and lung cells of the mouse obtained in the same manner as in Example 1.2 were washed twice with PBS and then centrifuged. The centrifuged cells were treated with anti-CD3-BV421 (BD Bioscience), anti-CD4-PerCP-Cy5.5 (BD Bioscience), anti-CD8-APC-Cy7 (BD Bioscience), anti-CD44-PE (Ebioscience), anti-CD62L-FITC (Ebioscience), anti-CD127-APC (Ebioscience), etc. Then, they were reacted at 4° C. for 30 minutes. After the reaction was completed, cells were washed several times with PBS to remove unbound antibody, and then effector T cells (Teff; CD3^+CD4^+CD62L^−CD44+CD127^−), effector/memory T cells (Tem; CD3^+CD4^+CD62L^−CD44^+CD127^+), central memory T cells (Tcm; CD3^+CD4^+CD62L^+CD44^+CD127^+), and naive T cells (Naive; CD3^+CD4^+CD62L^+CD44^−CD127^+) were analyzed by using flow cytometer (FACS verse, BD).

In test [2] the test system is spleen and lung cells. The test is described as follows: Antigen-specific multifunctional T cells after ESAT-6 stimulation (flow cytometry). The note with it: mouse, in vivo. (In general: A flow cytometer gives signals particle by particle.)

With `Nc1nc2c(ncn2[C@@H]2O[C@@H]3COP(=O)(O)O[C@H]4[C@@H](O)[C@H](n5cnc6c(=O)[nH]c(N)nc65)O[C@@H]4COP(=O)(O)O[C@H]3[C@H]2O)c(=O)[nH]1` [c-di-GMP, cyclic diguanylate], the “effector/memory T of CD4+/CD8+” value with spleen and lung cells [1] is given as “significant increase”. For the same compound, in the test on spleen and lung cells [2], the “T cells secreting all three types of cytokines IFN-γ, TNF-α and IL-2” value is given as “increased”.
For the compound monophosphoryl lipid A [MPL], in the test on spleen and lung cells [2], the “T cells secreting all three types of cytokines IFN-γ, TNF-α and IL-2” value is given as “increased”.
